These results are taken from patent publication US9499509B2, “Dihydrochalcone derivatives and their use as antibiotic agents” (UNIVERSITÉ DU QUÉBEC À CHICOUTIMI, priority 2012, dated 2016).

One data set concerns WS-1 cell lines. Description: Cytotoxicity assay on WS-1 (Example 2). The conditions noted are these: Table 7; WS-1, 48 h. Set-up: unit not given here. It counts as cell-based. The protocol:
Cytotoxicity assay. […] The WS-1 cell lines were provided by ATCC. […] The compounds tested were then added at 8 different concentrations. […] In Table 7, the therapeutic indexes of compounds IV to XXI are presented.

For data set [1], the system named is S. aureus wild type strain (ATCC 25923). Description: Antibiotic assay (absorption 660 nm, Example 2), S. aureus wild type. Type of data set: cell-based, Staphylococcus aureus. To be noted: for MIC: S. aureus WT (ATCC 25923); for S. aureus WT ATCC 25923 (toxicity on bacteria): Table 7, same values as MIC of Table 6. The protocol: (§1) Antibiotic agents. Gentamicin sulfate was provided by Calbiochem. Chloramphenicol was provided by Sigma-Aldrich.
(§2) Antibiotic assay. […] The bacteria strains were inoculated in nutrients broth. […] All bacteria were plated in nutrients broth at a concentration of 450 000 bacteria/m L.
(§3) Compounds IV to XXI were diluted in dimethylsulfoxide. […] The compounds were tested at 8 different concentrations.
(§4) Each well contained: 100 μL of bacteria, 100 μL of the compounds tested. The plates were incubated at 37° C. for 6 h. The absorption was read using a Varioskan flash multimode Reader™ (Thermo Scientific) at 660 nm.
(§5) MRSA. Ten (10) strains of MRSA obtained as described above were tested along with an S. aureus wild type (WT) strain (ATCC 25923).

For a further data set, the system named is MRSA strains. The experiment in a line: Antibiotic assay (absorption 660 nm, Example 2), MRSA strains. Type of data set: cell-based, Staphylococcus aureus. The protocol: as §1, §2, §3, §4, §5

Structures are written as SMILES. Converted amounts (≈) assume the structure as drawn.

For `O=C(CCc1ccccc1)c1c(O)cc2c(c1O)CC(O)C(c1ccc(O)cc1)O2` (stereo not shown) [XIV], in the data set on WS-1 cell lines, the “WS-1 (toxicity on normal cells, fibroblast)” value is greater than 50. For the same compound, the MIC in data set [1] was determined as 10.9 ± 0.6 µM (≈ 4.43 µg/mL); in the data set on MRSA strains (MRSA 1), 21.9 ± 0.2 µM (≈ 8.9 µg/mL); in the data set with MRSA strains (MRSA 2) it was 25 ± 2 µM (≈ 10.2 µg/mL); with MRSA strains (MRSA 3), 18 ± 1 µM (≈ 7.32 µg/mL); with MRSA strains (MRSA 4), 22 ± 2 µM (≈ 8.94 µg/mL); against MRSA strains (MRSA 5) it was 20 ± 2 µM (≈ 8.13 µg/mL). Further, the MIC with MRSA strains (MRSA 6) came out at 20 ± 3 µM (≈ 8.13 µg/mL); in the data set on MRSA strains (MRSA 7) it was 18.5 ± 0.4 µM (≈ 7.52 µg/mL); against MRSA strains (MRSA 8), 23.4 ± 1.0 µM (≈ 9.51 µg/mL); in the data set with MRSA strains (MRSA 9), 20 ± 2 µM (≈ 8.13 µg/mL); against MRSA strains (MRSA 10), 11.4 ± 0.6 µM (≈ 4.63 µg/mL). For the same compound, in data set [1], the “S. aureus WT ATCC 25923 (toxicity on bacteria)” value turned out to be 10.9 ± 0.6.
Take `COc1cc(O)c(C(=O)CCc2ccc(O)cc2)c2c1CC[C@@H](c1ccc(O)cc1)O2` [XI]: the “WS-1 (toxicity on normal cells, fibroblast)” value in the data set on WS-1 cell lines is greater than 50. In addition, the MIC (in data set [1]; with MRSA strains (MRSA 1); against MRSA strains (MRSA 2); with MRSA strains (MRSA 3); with MRSA strains (MRSA 4); in the data set on MRSA strains (MRSA 5)) was less than 0.39 µM in each case. The MIC in the data set on MRSA strains (MRSA 6), against MRSA strains (MRSA 7), with MRSA strains (MRSA 8), against MRSA strains (MRSA 9) and against MRSA strains (MRSA 10) was less than 0.39 µM in each case. For the same compound, the “S. aureus WT ATCC 25923 (toxicity on bacteria)” value in data set [1] is less than 0.39.
As to `O=C(CCc1ccccc1)c1c(O)cc(O)c2c1OC(c1ccc(O)cc1)C(O)C2` (stereo not shown) [XVIII], in the data set on WS-1 cell lines, the “WS-1 (toxicity on normal cells, fibroblast)” value is reported as greater than 50. The MIC in data set [1] was 9.9 ± 0.7 µM (≈ 4.02 µg/mL); against MRSA strains (MRSA 1) it was 12 ± 1 µM (≈ 4.88 µg/mL); in the data set on MRSA strains (MRSA 2), 14 ± 1 µM (≈ 5.69 µg/mL); with MRSA strains (MRSA 3), 15.9 ± 0.8 µM (≈ 6.46 µg/mL); with MRSA strains (MRSA 4) it was 15 ± 1 µM (≈ 6.1 µg/mL); against MRSA strains (MRSA 5) it was 11.5 ± 0.4 µM (≈ 4.67 µg/mL). Moreover, the MIC with MRSA strains (MRSA 6) is 11 ± 2 µM (≈ 4.47 µg/mL); with MRSA strains (MRSA 7), 7.5 ± 0.4 µM (≈ 3.05 µg/mL); against MRSA strains (MRSA 8) it was 9.5 ± 1.0 µM (≈ 3.86 µg/mL); in the data set with MRSA strains (MRSA 9), 13 ± 2 µM (≈ 5.28 µg/mL); in the data set on MRSA strains (MRSA 10), 12 ± 1 µM (≈ 4.88 µg/mL). Further, the “S. aureus WT ATCC 25923 (toxicity on bacteria)” value in data set [1] is on record as 9.9 ± 0.7.
In the case of `O=C(CCc1ccccc1)c1c(O)cc(O)c2c1OC(c1ccc(O)cc1)C(O)C2` (stereo not shown) [XVII], in the data set on WS-1 cell lines, the “WS-1 (toxicity on normal cells, fibroblast)” value is greater than 50. Also, the MIC in data set [1] was 13.0 ± 0.8 µM (≈ 5.28 µg/mL); against MRSA strains (MRSA 1), 13 ± 1 µM (≈ 5.28 µg/mL); against MRSA strains (MRSA 2), 12 ± 1 µM (≈ 4.88 µg/mL); with MRSA strains (MRSA 3), 16.7 ± 0.5 µM (≈ 6.79 µg/mL); in the data set with MRSA strains (MRSA 4), 15 ± 1 µM (≈ 6.1 µg/mL); against MRSA strains (MRSA 5) it was 5.1 ± 0.2 µM (≈ 2.07 µg/mL). Also, the MIC was 6 ± 2 µM (≈ 2.44 µg/mL) against MRSA strains (MRSA 6); 8.2 ± 0.7 µM (≈ 3.33 µg/mL) in the data set with MRSA strains (MRSA 7); 10.2 ± 0.8 µM (≈ 4.15 µg/mL) against MRSA strains (MRSA 8); 17 ± 1 µM (≈ 6.91 µg/mL) against MRSA strains (MRSA 9); 17 ± 1 µM (≈ 6.91 µg/mL) in the data set with MRSA strains (MRSA 10). Besides, in data set [1], the “S. aureus WT ATCC 25923 (toxicity on bacteria)” value is 13.0 ± 0.8.
In the case of `O=C(CCc1ccccc1)c1c(O)cc2c(c1O)CC(O)C(c1ccc(O)cc1)O2` (stereo not shown) [XV], the “WS-1 (toxicity on normal cells, fibroblast)” value in the data set on WS-1 cell lines was greater than 50. Further, the minimum inhibitory concentration (MIC) is 13 ± 1 µM (≈ 5.28 µg/mL) in data set [1]; 24.3 ± 0.9 µM (≈ 9.88 µg/mL) in the data set on MRSA strains (MRSA 1); 27 ± 1 µM (≈ 11 µg/mL) against MRSA strains (MRSA 2); 29 ± 3 µM (≈ 11.8 µg/mL) against MRSA strains (MRSA 3); 22 ± 2 µM (≈ 8.94 µg/mL) against MRSA strains (MRSA 4); 18 ± 2 µM (≈ 7.32 µg/mL) against MRSA strains (MRSA 5). Moreover, the MIC amounted to 18.9 ± 0.4 µM (≈ 7.68 µg/mL) in the data set on MRSA strains (MRSA 6); 20 ± 1 µM (≈ 8.13 µg/mL) with MRSA strains (MRSA 7); 17 ± 2 µM (≈ 6.91 µg/mL) in the data set on MRSA strains (MRSA 8); 30 ± 1 µM (≈ 12.2 µg/mL) in the data set with MRSA strains (MRSA 9); 7.8 ± 0.3 µM (≈ 3.17 µg/mL) in the data set with MRSA strains (MRSA 10). Moreover, in data set [1], the “S. aureus WT ATCC 25923 (toxicity on bacteria)” value worked out at 13 ± 1.
In the case of `COc1ccc(CCC(=O)c2c(O)cc(O)c3c2OC(c2ccc(O)cc2)C(O)C3)cc1` (stereo not shown) [XXI], in the data set with WS-1 cell lines, the “WS-1 (toxicity on normal cells, fibroblast)” value was greater than 50. Moreover, the minimal inhibitory concentration (MIC) in data set [1] came to 28 ± 2 µM (≈ 12.2 µg/mL); in the data set on MRSA strains (MRSA 1) it was 17 ± 2 µM (≈ 7.42 µg/mL); in the data set with MRSA strains (MRSA 2), 7 ± 2 µM (≈ 3.06 µg/mL); against MRSA strains (MRSA 3), 8.5 ± 0.6 µM (≈ 3.71 µg/mL); with MRSA strains (MRSA 4), 12.3 ± 0.5 µM (≈ 5.37 µg/mL); against MRSA strains (MRSA 5), 7.7 ± 0.6 µM (≈ 3.36 µg/mL). Also, the MIC amounted to 12 ± 1 µM (≈ 5.24 µg/mL) with MRSA strains (MRSA 6); 11.4 ± 0.5 µM (≈ 4.98 µg/mL) against MRSA strains (MRSA 7); 8.2 ± 0.2 µM (≈ 3.58 µg/mL) in the data set with MRSA strains (MRSA 8); 10.8 ± 0.8 µM (≈ 4.71 µg/mL) with MRSA strains (MRSA 9); 12 ± 1 µM (≈ 5.24 µg/mL) with MRSA strains (MRSA 10). The “S. aureus WT ATCC 25923 (toxicity on bacteria)” value in data set [1] was 28 ± 2.
On to `COc1ccc(CCC(=O)c2c(O)cc(O)c3c2OC(c2ccc(O)cc2)C(O)C3)cc1` (stereo not shown) [XX], for which the “WS-1 (toxicity on normal cells, fibroblast)” value in the data set on WS-1 cell lines is greater than 50. Also, the MIC was 14.0 ± 0.8 µM (≈ 6.11 µg/mL) in data set [1]; 14 ± 1 µM (≈ 6.11 µg/mL) in the data set on MRSA strains (MRSA 1); 11.4 ± 0.5 µM (≈ 4.98 µg/mL) in the data set on MRSA strains (MRSA 2); 8.9 ± 0.3 µM (≈ 3.88 µg/mL) against MRSA strains (MRSA 3); 7.6 ± 0.2 µM (≈ 3.32 µg/mL) against MRSA strains (MRSA 4); 3.8 ± 0.3 µM (≈ 1.66 µg/mL) against MRSA strains (MRSA 5). For the same compound, the MIC was found to be 11.2 ± 1.0 µM (≈ 4.89 µg/mL) with MRSA strains (MRSA 6); 12.1 ± 0.7 µM (≈ 5.28 µg/mL) with MRSA strains (MRSA 7); 7.0 ± 1.0 µM (≈ 3.06 µg/mL) in the data set on MRSA strains (MRSA 8); 12 ± 1 µM (≈ 5.24 µg/mL) in the data set with MRSA strains (MRSA 9); 12.6 ± 0.3 µM (≈ 5.5 µg/mL) against MRSA strains (MRSA 10). For the same compound, in data set [1], the “S. aureus WT ATCC 25923 (toxicity on bacteria)” value was determined as 14.0 ± 0.8.
